# From PMC12631873 (Advanced Science, 2025)
# Square brackets hold non-standard residues; d marks the D form. Peptide text beside a SMILES is read from it. * marks the point of attachment. X1 = CN1/C(=C/C=C/C=C/C2=[N+](CCCCCC(=O)*)c3ccc(S(=O)(=O)[O-])cc3C2(C)C)C(C)(C)c2cc(S(=O)(=O)O)ccc21; Hyp = O=C(O)[C@@H]1C[C@@H](O)CN1; Nlys = NCCCCNCC(=O)O; Ahx = NCCCCCC(=O)O
# How the values were obtained:
# [1] = Blood biochemical analysis; format: in vivo, mouse; conditions: C57BL/6J mice, 24 h post i.v. injection of 2 nmol, n = 5
# Experimental: Blood biochemical analysis: Each C57BL/6J mouse (6–8 weeks old) was intravenously injected with 100 µL of PBS or Cy5‐(NlysO)7 (2 nmol in 100 µL 1× PBS buffer per mouse) 24 h prior to blood collection for the biochemical analysis. Biochemical analysis of the blood was performed by Wuhan Servicebio.
# [2] = Routine (whole) blood tests after repeated dosing; format: in vivo, mouse; conditions: C57BL/6J mice, 3 weekly i.v. doses of 2 nmol over 14 days, n = 5
# Experimental: Whole blood tests: Each C57BL/6J mouse (6–8 weeks old) was intravenously injected with 100 µL of PBS buffer or with each peptide or peptoid probe (2 nmol in 100 µL 1× PBS buffer per mouse) on days 0, 7, and 14. The mice were sacrificed on day 15, 24 h after the final injection. The heart, liver, spleen, lungs, and kidneys were collected from each mouse and processed into formalin‐fixed paraffin‐embedded sections for histological evaluation with H&E staining. Whole blood was collected. Both H&E and blood sample analyses were performed by Wuhan Servicebio.
# [3] = Organ fluorescence 2 h post-injection (clearance route); format: in vivo, mouse; conditions: nude mice, organs isolated 2 h post i.v. injection of 1 nmol
# Experimental: (§1) Typically, the fluorescence peptides or peptoids were prepared at a dose of 1 nmol (10 µM in 100 µL of 1× PBS buffer) and injected into the tail vein of each mouse 2 h prior to fluorescence imaging with an IVIS Spectrum imager (PerkinElmer Lumina III). For Figure 4, Figures S17 and S18 (Supporting Information) (joint aging and RA) and Figure S27 (Supporting Information), 2 nmol of Cy5‐(NlysO)7 (20 µM in 100 µL of 1× PBS buffer) were i.v. administered to each mouse. For 1‐week‐old neonatal mice, 1 nmol of Cy5‐(NlysO)7 (20 µM in 50 µL of 1× PBS buffer) was intravenously injected into each mouse. All in vivo imaging was performed 2 h post probe injection with the IVIS Spectrum imager (PerkinElmer, fluorescence: ex/em: 620/670 nm, exposure: 1 s, bing: 4, F/Stop: 2; field of view: A/B/C/Z). Mice were anesthesia with 3% isoflurane (RWD, R510‐22‐10) during image acquisition. Hair in the knee areas was removed before fluorescence imaging for mice in Figure 4a and Figure S17 (Supporting Information). The mice were euthanized following the final image acquisition and occasionally imaged again after skin and organ removal. Next, the airways, ankles, ears, paws, knees, tails, spines, and chest ribs were collected, imaged, and saved for subsequent histology analysis. All acquired fluorescence images were analyzed using the Living Image software (PerkinElmer). The fluorescence signal from each specimen was measured by quantifying the average radiation efficiency within the selected oval‐shaped regions‐of‐interest.
# vitreous bodies and skin = test: In vivo uptake in vitreous bodies and skin; conditions: mouse, 2 h post i.v. injection of 2 nmol
# Experimental: as §1, with “Next, the airways, ankles, ears, paws, knees, tails, spines, and chest ribs were collected, imaged, and saved for subsequent histology analysis.” left out
# [4] = Serum stability test (HPLC); format: in vitro ADME, mouse; conditions: 37 °C, HPLC UV 646 nm, n = 3; for degradation in serum (in words): 25% v/v mouse serum, 24 h and even after 48 h
# Experimental: Cy5‐labeled peptidomimetic probes (10 nmol) were incubated in 25% v/v mouse serum (Biosharp, BL1053A diluted in 1× PBS) at 37 °C. Aliquots (200 µL) were taken periodically at 0 (deadtime: ≈10 min), 2, 24, and 48 h, and added to 400 µL of 3.75% trichloroacetic acid in acetonitrile at 4 °C. Then, all samples were centrifuged to remove the precipitated serum proteins at 13800 g for 10 min at 4 °C. The supernatant (150 µL) was taken to mix with 550 µL of water (with 0.1% TFA) to centrifuge again at 2630 g for 5 min at 4 °C. Five microliter of the supernatant was mixed with 200 µL of water containing 0.1% TFA as the final samples for HPLC analysis at room temperature monitored by absorbance at 646 nm with the integral area of the intact fraction recorded. The peak area for the 10 min time point was designated as 100% intact, and each peak area at successive time points was normalized to the 10 min peak to calculate the percent compound remaining. All the experiments were repeated three times.
# [5] = In vitro cartilage uptake (absorption); conditions: after 30 min; 10 mg porcine cartilage slice, 10 µM in 200 µL 1× PBS, room temperature, fluorescence, n = 6
# Experimental: Porcine cartilage was freshly harvested from the articular cartilage of an adult pig's knee joint obtained from a local slaughterhouse. Porcine cartilage plugs (diameter: 6 mm) were excised using an osteotomy drill with constant rinsing with PBS buffer for cooling. All solutions in the experiments with unfixed porcine cartilage samples (e.g., Figure 2d–f; Figures S5 and S6, Supporting Information) contained 100 U mL^−1 penicillin and 0.1 mg mL^−1 streptomycin (Solarbio, P1400) to prevent bacterial growth.
# The porcine cartilage plugs were carefully cut into small cuboids with a uniform size (≈5 × 1 × 2 mm, ≈10 mg by wet weight). […] Each incubation bath was aliquoted so its fluorescence FN1 of the incubation bath was measured without the cartilage samples using a microplate reader (PerkinElmer EnVision; excitation: 646 nm, emission: 662 nm) at specified time points (N1 = 0.5, 1, 2, 4, 6, 8, 10, 12, and 24 h) to estimate the absorption of the probes (Figure 2d; Figure S5, Supporting Information), while fluorescence levels of the compound solutions pre‐measured before incubation were recorded as Fpre. The unabsorbed percent was calculated as FN1/Fpre×100%, and the final fluorescence measurement after 24 h of absorption was recorded as F24h. […]
SMILES,"blood biochemical analytes (ALT, AST, TBIL, UREA, BUN, CREA) vs PBS group [1]",routine blood analyses vs PBS control group [2],clearance route from organ fluorescence [3],in vivo fluorescence uptake in vitreous bodies and skin compared to cartilage (vitreous bodies and skin),degradation in serum (in words) [4],unabsorbed percent of starting concentration remaining in solution [5],"intact compound remaining after 2 h serum incubation ([4]; 25% v/v mouse serum in 1× PBS, 10 nmol probe, peak area normalized to 10 min)"
CN1/C(=C/C=C/C=C/C2=[N+](CCCCCC(=O)NCCCCCC(=O)N(CCCCN)CC(=O)N3C[C@H](O)C[C@H]3C(=O)N(CCCCN)CC(=O)N3C[C@H](O)C[C@H]3C(=O)N(CCCCN)CC(=O)N3C[C@H](O)C[C@H]3C(=O)N(CCCCN)CC(=O)N3C[C@H](O)C[C@H]3C(=O)N(CCCCN)CC(=O)N3C[C@H](O)C[C@H]3C(=O)N(CCCCN)CC(=O)N3C[C@H](O)C[C@H]3C(=O)N(CCCCN)CC(=O)N3C[C@H](O)C[C@H]3C(N)=O)c3ccc(S(=O)(=O)[O-])cc3C2(C)C)C(C)(C)c2cc(S(=O)(=O)O)ccc21 [Cy5‐(NlysO)7] ({X1-Ahx}-[Nlys][Hyp][Nlys][Hyp][Nlys][Hyp][Nlys][Hyp][Nlys][Hyp][Nlys][Hyp][Nlys][Hyp]-NH2),no key analytes from the Cy5‐(NlysO)7 group significantly differed,None of the measurements,might be mainly cleared through kidneys,virtually no in vivo fluorescence uptake,hardly degraded,–,–
"CN1/C(=C/C=C/C=C/C2=[N+](CCCCCC(=O)NCCCCCC(=O)N[C@@H](CCCNC(=N)N)C(=O)N[C@@H](CCCNC(=N)N)C(=O)N[C@@H](CCCNC(=N)N)C(=O)N[C@@H](CCCNC(=N)N)C(=O)N[C@@H](CCCNC(=N)N)C(=O)N[C@@H](CCCNC(=N)N)C(=O)N[C@@H](CCCNC(=N)N)C(=O)N[C@@H](CCCNC(=N)N)C(N)=O)c3ccc(S(=O)(=O)[O-])cc3C2(C)C)C(C)(C)c2cc(S(=O)(=O)O)ccc21 [Cy5‐R8, reference compound]",–,–,–,–,extremely unstable,≈ 20%,no intact R8 peptide remained
